These results are taken from the Deep4Chem optical property database.

The data set is described as follows: photoluminescence quantum yield (fraction); solvent given as SMILES.

`COc1ccc(N(c2ccccc2)c2ccccc2)cc1`: the photoluminescence quantum yield (in Cc1ccccc1) worked out at 0.03.

Where the note is “in ClCCl”, `Cc1cc2cc(C)c3c4ccccc4[nH]c3c2s1` had a photoluminescence quantum yield of 0.047.

Consider `F[B-]1(F)n2c(ccc2-c2ccccc2)C(C(F)(F)F)=C2C=CC(c3ccccc3)=[N+]21`, for which the photoluminescence quantum yield (in CCCCCC) turned out to be 0.74.

In turn, `c1ccc(N(c2ccccc2)c2ccc(N(c3ccccc3)c3ccc4ccc5c(N(c6ccccc6)c6ccc(N(c7ccccc7)c7ccccc7)cc6)ccc6ccc3c4c65)cc2)cc1` returned a photoluminescence quantum yield (in ClCCl) of 0.13.

Under “in ClCCl”, `C(#Cc1nc(C#Cc2ccccc2)c(C#Cc2ccccc2)c(C#Cc2ccccc2)c1C#Cc1ccccc1)c1ccccc1` gave a photoluminescence quantum yield of 0.55.

`Oc1ccc(-c2nc(-c3ccccc3)c(-c3ccccc3)[nH]2)cc1` returned a photoluminescence quantum yield (in CO) of 0.18.

For the setting “in CS(C)=O”, `N#Cc1c(/C=C/c2ccc(N(c3ccccc3)c3ccccc3)cc2)cc(-c2cccs2)cc1N1CCCCC1` came in with a photoluminescence quantum yield of 0.53.

Turning to `COCCOCCOCCOc1cc(C=O)c(OCCOCCOCCOC)cc1C=O`, the photoluminescence quantum yield worked out at 0.12 (in CC(C)(C)O); 0.12 (in CC(C)CO); 0.11 (in CC(C)O); 0.13 (in CCCCO); 0.16 (in CCCO); 0.19 (in CCO). The photoluminescence quantum yield (in CN(C)C=O) was determined as 0.04; the photoluminescence quantum yield (in CNC=O) was 0.08; the photoluminescence quantum yield (in CO) worked out at 0.23; the photoluminescence quantum yield (in NC=O) came out at 0.31; the photoluminescence quantum yield (in O) worked out at 0.54.

Consider `N#Cc1ccc(-n2c3ccccc3c3c2c2ccccc2n3-c2ccccc2)cc1`, for which the photoluminescence quantum yield (in Cc1ccccc1) was 0.143.

Turning to `CCC1=C(C)C2=Cc3ccccc3B(O)N2C1=O`, the photoluminescence quantum yield (in CC#N) was 0.42; the photoluminescence quantum yield (in CCCCCC) was 0.25; the photoluminescence quantum yield (in CO) amounted to 0.12; the photoluminescence quantum yield (in CS(C)=O) came out at 0.19; the photoluminescence quantum yield (in ClC(Cl)Cl) is 0.36.

As to `COc1cn2cc(-c3ccc(C#N)cc3)[n-][n+]2c1`, where the note is “in ClCCl”, the photoluminescence quantum yield worked out at 0.57.

`C/C(=N\Nc1ccc(C#N)cc1)c1cccc(/C(C)=N/Nc2ccc(C#N)cc2)c1` registered a photoluminescence quantum yield (in CO) of 0.14.

In the case of `CCC1=C(C)C(=O)n2c1cc1c(C)c(CC)c(C)n1c2=O`, the photoluminescence quantum yield was found to be 0.93 (in CO), 0.98 (in CS(C)=O), 1 (in ClC(Cl)Cl) and 0.98 (in c1ccccc1).

For the molecule `CCCCCCOc1cc(C=C2c3ccccc3-c3ccccc32)c(OCCCCCC)cc1C=C1c2ccccc2C=Cc2ccccc21`, under “in C1CCOC1”, the photoluminescence quantum yield was determined as 0.0013.

In turn, `Cc1ccc(C(=O)OCc2ccc3c4cccc5cccc(c6cccc2c63)c54)cc1` returned a photoluminescence quantum yield (in CCO) of 0.93.

Turning to `CC(C)(C)c1ccc2c(c1)B1c3cc(C(C)(C)C)ccc3Oc3cc(-n4c5ccccc5c5c6c(c7ccccc7n6-c6ccccc6)c6c(c7ccccc7n6-c6ccccc6)c54)cc(c31)O2`, for the setting “in Cc1ccccc1”, the photoluminescence quantum yield stood at 0.99.

Turning to `C(=C\c1nc2ccccc2s1)/c1ccccc1`, the photoluminescence quantum yield is, setting by setting: (in C1CCCCC1) 0.04; (in CO) 0.007.

Turning to `CN(C)c1ccc2nc(-c3ccc(C(=O)OC[C@H](NC(=O)OC(C)(C)C)C(=O)OCc4ccccc4)cc3)sc2c1`, the photoluminescence quantum yield reads like this: (in C1CCCCC1) 0.86; (in CC#N) 0.94; (in CC(C)O) 0.9; (in CO) 0.68; (in CS(C)=O) 0.94; (in ClC(Cl)Cl) 0.98. Under “in c1ccccc1”, this molecule registered a photoluminescence quantum yield of 0.92.

Consider `CCC(=O)c1ccc2cc(N(C)C)ccc2c1`, for which the photoluminescence quantum yield runs as follows: (in C1CCOC1) 0.83; (in C1COCCO1) 0.61; (in CC#N) 0.94; (in CCCCCC) 0.02; (in CCCCCCC) 0.019; (in CCCCCCCCO) 0.385. Besides, the photoluminescence quantum yield came out at 0.95 (in CCO); 0.92 (in CN(C)C=O); 0.71 (in CO); 0.75 (in CS(C)=O); 0.52 (in Cc1ccccc1); 0.88 (in ClC(Cl)Cl). Also, the photoluminescence quantum yield (in ClCCl) was 0.94.

For the molecule `CC1(C)c2ccccc2N(c2ccc(-c3nnc(-c4ccc(-n5c6ccccc6c6ccccc65)cc4)o3)cc2)c2ccccc21`, under “in O=P(c1ccccc1)(c1ccccc1)c1ccccc1Oc1ccccc1P(=O)(c1ccccc1)c1ccccc1”, the photoluminescence quantum yield is 0.67.

As to `CN(C)c1nc(N(C)C)c2nc(C#N)n(Cc3ccccc3)c2n1`, the photoluminescence quantum yield runs as follows: (in C1COCCO1) 0.95; (in CC#N) 0.26; (in CO) 0.03; (in ClCCl) 0.2.

With `COc1ccc(-c2nc(-c3ccc(OC)cc3)n3ccccc23)cc1`, the photoluminescence quantum yield (in ClC(Cl)Cl) was determined as 0.22.

As to `CN(C)c1ccc(/C=C/c2nc3ccccc3o2)cc1`, the photoluminescence quantum yield by setting is: (in C1CCCCC1) 0.005; (in CO) 0.007.

In turn, `CCCCCCC(CCCCCC)N1C(=O)c2cccc3c(-c4ccc(N(C)C)cc4)ccc(c23)C1=O` registered a photoluminescence quantum yield (in CCCCCC) of 0.7; a photoluminescence quantum yield (in CCCCCCCCCCCCCC) of 0.73; a photoluminescence quantum yield (in CCCCCCCCCCCO) of 0.14; a photoluminescence quantum yield (in CCCCO) of 0.013; a photoluminescence quantum yield (in CN(C)C=O) of 0.0037; a photoluminescence quantum yield (in Cc1ccccc1) of 0.65. For the setting “in ClC(Cl)Cl”, the photoluminescence quantum yield amounted to 0.64.

In the case of `CC1(C)CC(/N=C/c2ccc3ccc4cccc5ccc2c3c45)CC(C)(C)N1[O]`, the photoluminescence quantum yield reads like this: (in C1CCCCC1) 0.11; (in CC#N) 0.01; (in CO) 0.03; (in ClC(Cl)Cl) 0.02.

`c1ccc(-c2cc3cc4cccc5c(-c6ccccc6)cc6cc7cccc2c7c3c6c45)cc1` returned a photoluminescence quantum yield (in ClCCl) of 0.33.

On to `Fc1ccc2cc3cccc[n+]3cc2c1`, for which the photoluminescence quantum yield (in O) was found to be 0.34.

`Cc1ccc(O)c(-c2nc(C)c3n2CCCC3)c1` gave a photoluminescence quantum yield (in ClCCl) of 0.43.

Consider `CN(C)c1ccc(C2=Cc3c4ccccc4cc[n+]3[B-](F)(F)O2)cc1`, for which the photoluminescence quantum yield runs as follows: (in C1CCOC1) 0.658; (in C1COCCO1) 0.863; (in CC1CCCCC1) 0.979; (in CC#N) 0.638; (in CCOC(C)=O) 0.663; (in CCOCC) 0.848. Further, the photoluminescence quantum yield is 0.561 (in CN(C)C=O), 0.499 (in CO), 0.587 (in COC(C)=O) and 0.743 (in ClC(Cl)Cl).

With `CCCCCCN1C(=O)C(c2ccc(-c3ccc(-n4c5ccccc5c5ccccc54)cc3)cc2)=C(c2ccc(-c3ccc(-n4c5ccccc5c5ccccc54)cc3)cc2)C1=O`, the photoluminescence quantum yield reads like this: (in ClC(Cl)Cl) 0.84; (in c1ccc2c(c1)c1ccccc1n2-c1ccc(-c2ccc(-n3c4ccccc4c4ccccc43)cc2)cc1) 0.57.

`CNc1ccc2c(c1)C(=O)c1ccccc1-2`: the photoluminescence quantum yield was 0.0073 (in C1CCCCC1) and 0.001 (in c1ccccc1).

`c1ccc([Si]2(c3ccccc3)c3ccccc3-c3cc4c(cc32)-c2ccccc2[Si]4(c2ccccc2)c2ccccc2)cc1` registered a photoluminescence quantum yield (in ClCCl) of 0.56.

Turning to `Cc1cc(C)c(C2=C3C=C(/C=C/C(=O)OC(C)(C)C)C=[N+]3[B-](F)(F)n3c2ccc3N2CCOCC2)c(C)c1`, the photoluminescence quantum yield reads like this: (in CC#N) 0.13; (in CCCCCC) 0.88; (in CN(C)C=O) 0.15; (in CO) 0.21; (in Cc1ccccc1) 0.64; (in ClCCl) 0.49.

For the setting “in ClCCl”, `C[Si]1(C)O[Si](C)(C)c2cc3c(-c4ccccc4F)c4cc(Cl)ccc4nc3cc21` came in with a photoluminescence quantum yield of 0.56.

`COCCOCCOc1cc(C=O)c(OCCOCCOC)cc1C=O` yielded a photoluminescence quantum yield (in CC(C)(C)O) of 0.12; a photoluminescence quantum yield (in CC(C)CO) of 0.09; a photoluminescence quantum yield (in CC(C)O) of 0.08; a photoluminescence quantum yield (in CCCCO) of 0.14; a photoluminescence quantum yield (in CCCO) of 0.15; a photoluminescence quantum yield (in CCO) of 0.15. The photoluminescence quantum yield (in CN(C)C=O) was 0.05; the photoluminescence quantum yield (in CNC=O) came out at 0.03; the photoluminescence quantum yield (in CO) worked out at 0.22; the photoluminescence quantum yield (in NC=O) is 0.26; the photoluminescence quantum yield (in O) came to 0.55.

On to `c1ccc(-c2nnc(-c3ccccc3)n2-c2ccc(N3c4ccccc4N(c4ccccc4)c4ccccc43)cc2)cc1`, for which the photoluminescence quantum yield is, setting by setting: (in Cc1ccccc1) 0.03; (in c1cc(-n2c3ccccc3c3ccccc32)cc(-n2c3ccccc3c3ccccc32)c1) 0.12.

`COc1ccc(-c2ncccn2)cc1` showed a photoluminescence quantum yield (in ClCCl) of 0.01.

As to `CCC1=C(C)C(=O)n2c1cc1c(C)c(CC(=O)O)c(C)n1c2=O`, the photoluminescence quantum yield runs as follows: (in CO) 0.91; (in CS(C)=O) 1; (in ClC(Cl)Cl) 0.96; (in c1ccccc1) 0.88.

Turning to `Cc1cc(-c2ccc(-n3c4ccccc4c4ccccc43)cc2)nc(-c2ccc(-n3c4ccccc4c4ccccc43)cc2)n1`, the photoluminescence quantum yield reads like this: (in C1CCOC1) 0.59; (in CN(C)C=O) 0.63; (in Cc1ccccc1) 0.64; (in ClC(Cl)Cl) 0.61.

With `c1ccc(-c2c3c(nc4ccccc24)-c2cc4c(cc2CC3)-c2nc3ccccc3c(-c3ccccc3)c2CC4)cc1`, the photoluminescence quantum yield (in ClC(Cl)Cl) was determined as 0.84.

As to `CCN(CC)c1ccc(C=Cc2nc3nc4ccccc4nc3s2)c(OC)c1`, the photoluminescence quantum yield (in CCO) was determined as 0.32.

Molecule `CC1=CC(/C=C/c2ccccc2)=[N+]2C1=C(c1ccccc1)c1c(C)cc(/C=C/c3ccccc3)n1[B-]2(F)F` registered a photoluminescence quantum yield (in Cc1ccccc1) of 0.59.

In the case of `CCC/N=C/c1cc2ccc(N(C)C)cc2cc1OC`, the photoluminescence quantum yield (in CS(C)=O) stood at 0.61.
